Source: ChEMBL document CHEMBL1138166, “Synthesis and antimycobacterial activity of some alkyl [5-(nitroaryl)-1,3,4-thiadiazol-2-ylthio]propionates” (2006)
Converted amounts (≈) assume the structure as drawn. The source made the active and inactive calls. The rule behind the calls is not given here.

Tested on: Mycobacterium tuberculosis
Assay: Antimycobacterial activity against Mycobacterium tuberculosis H37Rv by microplate alamar blue assay
Assay type: functional
Settings: for MIC: Mycobacterium tuberculosis, H37Rv

| SMILES | Activity | Inhibition | MIC |
| --- | --- | --- | --- |
| COC(=O)CCSc1nnc(-c2ccc([N+](=O)[O-])o2)s1 | inactive | 64% | > 6.25 µg/mL |
| CCOC(=O)CCSc1nnc(-c2ccc([N+](=O)[O-])s2)s1 | inactive | 26% | > 6.25 µg/mL |
| CCOC(=O)C(C)[S+]([O-])c1nnc(-c2ncc([N+](=O)[O-])n2C)s1 (stereo not drawn) | inactive | 11% | > 6.25 µg/mL |
| O=C(O)CCSc1nnc(-c2ccc([N+](=O)[O-])s2)s1 | inactive | 0% | > 6.25 µg/mL |
| CCOC(=O)C(C)Sc1nnc(-c2ccc([N+](=O)[O-])s2)s1 (stereo not drawn) | Active | 92% | 6.25 µg/mL (≈ 18.1 µM) |
| CCOC(=O)C(C)Sc1nnc(-c2ccc([N+](=O)[O-])o2)s1 (stereo not drawn) | Active | 98% | 6.25 µg/mL (≈ 19 µM) |
| CO[C@H]1/C=C/O[C@@]2(C)Oc3c(C)c(O)c4c(O)c(c(/C=N/N5CCN(C)CC5)c(O)c4c3C2=O)NC(=O)/C(C)=C\C=C\[C@H](C)[C@H](O)[C@@H](C)[C@@H](O)[C@@H](C)[C@H](OC(C)=O)[C@@H]1C [RIFAMPIN] | – | – | 0.5 µg/mL (≈ 0.608 µM) |
| CCCCOC(=O)CCSc1nnc(-c2ccc([N+](=O)[O-])o2)s1 | inactive | 0% | > 6.25 µg/mL |
| CCCOC(=O)CCSc1nnc(-c2ccc([N+](=O)[O-])o2)s1 | inactive | 0% | > 6.25 µg/mL |
| CCOC(=O)C(C)[S+]([O-])c1nnc(-c2ccc([N+](=O)[O-])s2)s1 (stereo not drawn) | inactive | 12% | > 6.25 µg/mL |
| CCOC(=O)C(C)S(=O)(=O)c1nnc(-c2ccc([N+](=O)[O-])s2)s1 (stereo not drawn) | inactive | 82% | > 6.25 µg/mL |
| CCOC(=O)C(C)S(=O)(=O)c1nnc(-c2ccc([N+](=O)[O-])o2)s1 (stereo not drawn) | inactive | 78% | > 6.25 µg/mL |
| O=C(O)CCSc1nnc(-c2ccc([N+](=O)[O-])o2)s1 | Active | 95% | 6.25 µg/mL (≈ 20.7 µM) |
| CCOC(=O)C(C)Sc1nnc(-c2ncc([N+](=O)[O-])n2C)s1 (stereo not drawn) | Active | 90% | 6.25 µg/mL (≈ 18.2 µM) |
| CCOC(=O)CCSc1nnc(-c2ccc([N+](=O)[O-])o2)s1 | inactive | 14% | > 6.25 µg/mL |
| COC(=O)CCSc1nnc(-c2ccc([N+](=O)[O-])s2)s1 | inactive | 76% | > 6.25 µg/mL |
| CCCCOC(=O)CCSc1nnc(-c2ccc([N+](=O)[O-])s2)s1 | Active | 98% | 6.25 µg/mL (≈ 16.7 µM) |
| CCCOC(=O)CCSc1nnc(-c2ccc([N+](=O)[O-])s2)s1 | Active | 98% | 1.56 µg/mL (≈ 4.34 µM) |
| CCOC(=O)C(C)S(=O)(=O)c1nnc(-c2ncc([N+](=O)[O-])n2C)s1 (stereo not drawn) | Active | 100% | 3.12 µg/mL (≈ 8.31 µM) |
| CCOC(=O)C(C)[S+]([O-])c1nnc(-c2ccc([N+](=O)[O-])o2)s1 (stereo not drawn) | inactive | 6% | > 6.25 µg/mL |
